{"source": "patent US20240390327A1", "about": "“THERAPEUTIC COMPOSITIONS AND METHODS” (Johns Hopkins University, priority 2021, published 2024)", "key": {"rats with PCL syndrome": {"tested_on": "rats with PCL syndrome", "test": "Diffusion tensor imaging in PCL model", "assay_type": "in vivo, rat", "conditions": "11.7T MRI", "method": "Diffusion Tensor Imaging was performed on an 11.7T Bruker MRI scanner. These images were processed to assign directional colors ([…] transverse, blue vertical, and green orthogonal to the plane)."}, "naïve rats": {"tested_on": "naïve rats", "test": "EPO+MLT regimen in naïve neonatal rats, unanticipated effects", "assay_type": "in vivo, rat", "conditions": "doses administered the same time of day", "method": "To test if EPO+MLT could prevent the onset of PHHP, on P2 CAM+IVH rats were randomized to receive either EPO+MLT or vehicle from P2 (equivalent to approximately 32 weeks human gestation) to P10 (full term in humans). Six doses of EPO (2500 U/kg/dose i.p.) or vehicle were administered on P2-P5, P7 and P9. Nine doses of MLT (20 mg/kg/dose i.p.) or vehicle were administered on P2-P10. A subset of 36 CAM-IVH pups were randomized to receive vehicle, EPO alone, MLT alone, or EPO+MLT to test impact of treatment on macrocephaly. […] To determine if EPO+MLT had any unanticipated effect on normal neurodevelopment, a set of naïve pups underwent EPO+MLT treatment.\nNeurodevelopmental battery included nine tests (surface righting, negative geotaxis, cliff aversion, forelimb grasp, audio startle, eye opening, ear twitch, forelimb placement, and air righting) (Farkas et al., 2009; Bahamoori et al., 2012). Since no differences with audio startle or eye opening were noted across groups, these two tests were not included for naïve rats. Observers blinded to injury and treatment group tested 146 rats each day from P4 to P15, and then at P21.\nTo determine if the progressive macrocephaly and poor cliff aversion performance observed in CAM-IVH rats was preventable, we assessed the efficacy of combined EPO+MLT treatment in the neonatal period in a separate cohort of rats (n=88). […]"}, "CAM-IVH rats": {"tested_on": "CAM-IVH rats", "test": "Intra-aural distance (macrocephaly) in CAM-IVH model of PHHP", "assay_type": "in vivo, rat", "conditions": "treatment P2-P10, followed through P21", "method": "For each experiment with a statistical analysis, a power analysis was performed to estimate the required sample size (G*Power 3.1.9.3). We used preliminary and published data to estimate means and standard deviations for each group for the primary outcomes of intra-aural distance, ventriculomegaly, neurodevelopmental assessment, qPCR, and DTI analyses (Farkas et al., 2009; Yung et al., 2011; Baharnoori et al., 2012; Jantzie et al., 2014a,b, 2018; Robinson et al., 2016). Scanning electron microscopy qualitative analysis of EMC was set a priori as two per group. Primary endpoints were set a priori as described in the text, and were daily (P4-P15 and P21) for IAD and neurodevelopment, P5 for ventriculomegaly, P15 for periventricular YAP mRNA, and P21 for remaining assays. No animals were individually excluded except, as noted in the text, those who were removed prior to P21 due to poor health. DTI images from one rat were excluded due to poor image acquisition quality prior to quantification. Rats from both institutions and at least two separate litters were used for all experiments, except rats for SEM were prepared at one institution. Rats from both sexes were randomly assigned to injury (CAM versus sham at E18, IVH versus vehicle at P1) and to treatment group (EPO+MLT or vehicle on P2 for CAM-IVH rats). […]"}, "[1]": {"tested_on": "rats with PCL syndrome (LPS plus Poly IC)", "test": "Nociception (mechanical allodynia, thermal hypersensitivity) in Post-COVID Like (PCL) model", "assay_type": "in vivo, rat", "conditions": "chronic pain lasting greater than 2 months", "method": "LPS (3 mg/kg ip) is given to prime the immune system of rats on postnatal (P) 45, 46 and P47. Subsequently, Poly IC (2, 3, or 5 mg/kg ip) is given on P55 to mimic a viral exposure. The response to these stimuli are studied in the following acute, subacute and chronic timepoints. Pain and activity in an open field are outcome measures we use routinely to track the development of the PCL syndrome.\nFor experimental design and development of pel syndrome with cognitive assessment, LPS (3 mg/kg ip) is given to prime the immune system of rats on postnatal (P) 45, 46 and P47. Subsequently, Poly IC (5 mg/kg ip) is given on P55 to mimic a viral exposure. The response to these stimuli are studied in the following acute, subacute and chronic timepoints. Pain and Activity in an Open Field are outcome measures we use routinely to track the development of the PCL syndrome. Similarly, Touchscreen cognitive assessment occurs simultaneously throughout the Acute, SubAcute and Chronic Phases. Using a touchscreen assessment platform, we first assess visual discrimination. We then assess cognitive flexibility through a test of reversal learning, and then a test of attention called 5 choice serial reaction (5CSRTT).\nAfter priming the immune system with systemic lipopolysaccharide (LPS) on postnatal day 45-47, rats receive the viral mimetic poly(I:C) on P55."}, "[2]": {"tested_on": "rats with prenatal injury (TSHI plus intra-amniotic LPS)", "test": "Open field after prenatal injury (chorioamnionitis model of cerebral palsy)", "assay_type": "in vivo, rat", "conditions": "P28-P30 open field", "description": "As placental structure and function is of significant clinical importance to neurologic sequelae in preterm survivors (59-61), we use a prenatal model of in utero transient systemic HI (TSHI) and intra-amniotic lipopolysaccharide (LPS) administration in pregnant rats (62-64). This approach capitalizes on an intact maternal-placental-fetal unit and is a model of PBI from extreme preterm birth (<28 weeks of gestation) that mimics dual intrauterine injury from placental underperfusion and chorioamnionitis (65). Briefly, under isoflurane anesthesia, a laparotomy is performed on embryonic day (E) 18. Uterine arteries are clamped for 60 min and followed by intra-amniotic injections of LPS (4 μg/sac; 0111:B4, Sigma, St. Louis, MO, USA) (62, 64, 65). Sham controls undergo anesthesia and laparotomy for 60 min without arterial clamping or LPS injections. Following closure of the laparotomy, dams receive narcotic pain medication, recover, and pups are born vaginally at E22, approximately equal to 30-32 weeks in human gestation. We have previously reported the effects of TSHI and LPS alone, and in concert, on CNS pathological hallmarks, functional motor outcomes, histologic placental injury, and expression of common pro-inflammatory cytokines (63, 64).\nWhen EPO was administered in isolation, it was given from P1 to P5 at 2,000 U/kg/dose as previously published (47, 48, 54, 55, 71, 72). […]"}, "[3]": {"tested_on": "patients (adult traumatic brain injury; pediatric and neonatal trials)", "conditions": "cited from earlier work"}, "PBMCs": {"tested_on": "PBMCs", "test": "PBMC secretome after buprenorphine stimulation in culture", "conditions": "P21 PBMCs, 3 h culture; EPO 10 U/mL + MLT 20 μM; naloxone 10 μM"}}, "note": "Entries after “also recorded” stand apart in the source; their conditions may differ.", "data": [{"compound": "COc1ccc2[nH]cc(CCNC(C)=O)c2c1", "note": "[MLT, N-acetyl-5-methoxytryptamine]", "values": [{"measurement": "white matter microstructural integrity (directional color DTI)", "setting": "rats with PCL syndrome", "result": "the microstructural integrity is altered and the colors are muted"}, {"measurement": "impact on the circadian rhythm", "setting": "naïve rats", "result": "no impact was evident"}, {"measurement": "intra-aural distance (IAD), progressive macrocephaly", "setting": "CAM-IVH rats", "result": "the IADs were not significantly different compared littermates that received vehicle"}, {"measurement": "chronic thermal hypersensitivity", "setting": "[1]", "result": "neither ROX nor MLT alone"}]}, {"compound": "EPO: erythropoietin compound or erythropoietin, in particular human recombinant erythropoietin", "values": [{"measurement": "disinhibition (open field)", "setting": "[2]", "result": "does not; also recorded: did not improve disinhibition"}, {"measurement": "adverse events in pediatric and neonatal EPO trials", "setting": "[3]; high-dose, extended EPO regimens", "result": "no adverse events have emerged with high-dose, extended EPO regimens in neonatal trials"}, {"measurement": "adverse events in meta-analyses of EPO for severe adult traumatic brain injury", "setting": "[3]; versus placebo", "result": "no adverse events were evident compared to placebo treatment"}, {"measurement": "intra-aural distance (IAD), progressive macrocephaly", "setting": "CAM-IVH rats", "result": "the IADs were not significantly different compared littermates that received vehicle"}]}, {"compound": "C=CCN1CC[C@]23c4c5ccc(O)c4O[C@H]2C(=O)CC[C@@]3(O)[C@H]1C5", "note": "[naloxone]", "values": [{"measurement": "secretion of interferon gamma and IL-6 by PBMCs treated with buprenorphine", "setting": "PBMCs", "result": "blocked the secretion of these proinflammatory mediators"}]}]}
